Reference: paper PMC11089504 (Journal of medicinal chemistry, 2024)
Several values for one entry are separate records, joined by “and”; a condition that tells them apart may be missing. Equal entries are not always repeated.

Columns and labels:
A. castellanii CYP51 [1] = target: T1, A. castellanii CYP51 (Acanthamoeba castellanii, UniProt L8GJB3, V2A); details: full-length enzyme, type I spectral response
T1 sequence (L8GJB3 1-486 V2A): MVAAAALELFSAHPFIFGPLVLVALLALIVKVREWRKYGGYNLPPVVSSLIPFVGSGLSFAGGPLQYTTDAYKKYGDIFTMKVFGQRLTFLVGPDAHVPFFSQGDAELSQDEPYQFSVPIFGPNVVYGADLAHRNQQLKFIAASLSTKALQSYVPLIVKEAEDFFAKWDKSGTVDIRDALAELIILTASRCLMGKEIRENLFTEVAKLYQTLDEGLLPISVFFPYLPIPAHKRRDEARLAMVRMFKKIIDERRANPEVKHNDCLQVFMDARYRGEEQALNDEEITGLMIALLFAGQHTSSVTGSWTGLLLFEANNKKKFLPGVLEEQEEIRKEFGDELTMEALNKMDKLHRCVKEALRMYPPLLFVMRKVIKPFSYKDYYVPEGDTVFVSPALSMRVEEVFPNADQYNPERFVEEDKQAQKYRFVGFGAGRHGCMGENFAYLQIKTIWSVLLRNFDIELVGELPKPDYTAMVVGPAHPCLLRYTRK
T1 sequence (P00388 2-678 partner): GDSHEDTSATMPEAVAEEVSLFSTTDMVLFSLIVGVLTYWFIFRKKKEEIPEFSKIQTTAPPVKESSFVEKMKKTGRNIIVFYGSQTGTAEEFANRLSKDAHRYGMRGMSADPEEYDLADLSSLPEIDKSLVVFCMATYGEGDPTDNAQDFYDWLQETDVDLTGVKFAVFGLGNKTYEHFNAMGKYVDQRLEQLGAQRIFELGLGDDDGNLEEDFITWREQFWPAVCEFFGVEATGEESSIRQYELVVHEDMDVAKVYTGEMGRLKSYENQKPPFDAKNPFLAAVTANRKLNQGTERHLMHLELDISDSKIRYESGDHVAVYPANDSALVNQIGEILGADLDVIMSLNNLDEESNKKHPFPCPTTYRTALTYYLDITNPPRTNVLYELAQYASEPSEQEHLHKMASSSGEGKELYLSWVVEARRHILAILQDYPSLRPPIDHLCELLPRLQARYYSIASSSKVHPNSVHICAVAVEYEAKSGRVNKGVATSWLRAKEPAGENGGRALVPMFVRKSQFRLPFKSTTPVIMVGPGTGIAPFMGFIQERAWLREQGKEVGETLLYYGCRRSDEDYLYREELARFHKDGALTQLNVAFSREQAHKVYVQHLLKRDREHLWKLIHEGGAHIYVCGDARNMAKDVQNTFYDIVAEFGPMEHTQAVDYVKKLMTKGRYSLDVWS

A. castellanii CYP51 [2] = target: T1, A. castellanii CYP51; details: obtusifoliol over lanosterol
T. cruzi CYP51 = details: 2-fold molar excess over the enzyme ref 61; cited from earlier work
human CYP51 = details: cited from earlier work

Structure (SMILES) | low- to high-spin transition in the heme iron (A. castellanii CYP51 [1]) | fold higher catalytic efficiency than for lanosterol (substrate preference) (A. castellanii CYP51 [2]) | inhibition of T. cruzi CYP51 (T. cruzi CYP51) | binding to human CYP51 (human CYP51)
CC(C)=CCC[C@@H](C)[C@H]1CC[C@@]2(C)C3=C(CC[C@]12C)[C@@]1(C)CC[C@H](O)C(C)(C)[C@@H]1CC3 [lanosterol] | ~15% |  |  | 
C=C(CC[C@@H](C)[C@H]1CC[C@@]2(C)C3=C(CC[C@]12C)[C@@]1(C)CC[C@H](O)[C@@H](C)[C@@H]1CC3)C(C)C [obtusifoliol] | ~ 60% | ~ 100 fold and 100 fold |  | 
O[C@@](Cn1cnnn1)(c1ccc(F)cc1F)C(F)(F)c1ccc(-c2ccc(OCC(F)(F)F)cc2)cn1 [VT1161, (R)-2-(2,4-difluorophenyl)-1,1-difluoro-3-(lH-tetrazol-1-yl)-1-(5-(4-(2,2,2-trifluoroethoxy)phenyl)pyridin-2-yl)propan-2-ol] |  |  | ~ 95% | does not bind
